Measured values as given in US20240319211A1, “CONTENT CONVERSION METHOD OF FREE COMPONENTS BY TRANSFORMING ULTRAFILTRATION TO EQUILIBRIUM DIALYSIS” (HEFEI NOVA-MS BIOTECH MEDICAL EQUIPMENT CO., LTD, priority 2022, published 2024).
Several values for one entry are separate records, joined by “and”; a condition that tells them apart may be missing. Identical values can stand only once.

Key:
[1] = FT3 in serum by ultrafiltration (UF), LC-MS/MS; settings: for Concentration UF, Average: average of 10 samples; for Concentration UF: serum, individual samples No. 1-10
Protocol: (§1) In a method in this embodiment, ultrafiltration and equilibrium dialysis are performed to separate free triiodothyronine (FT3) at 20° C., 25° C., 30° C., and 37° C., respectively. In practice, another temperature value may be used. Where
(§2) Ultrafiltration: 100 μL 4-hydroxyethyl piperazine ethanesulfonic acid solution is added to a 100 μL serum, and the solution is mixed well by pipettes. Subsequently, the obtained mixture is transferred to the activated ultrafiltration tube and centrifuged at 20° C., 25° C., 30° C., and 37° C., and 2000 g for 1 h, respectively.
Internal standard precipitation: 100 μL internal standard solution is added to 100 μL ultrafiltrate, and vortexed well for 3 min. Then, centrifugation is performed at 4° C. and 12000 rpm for 10 min.
(§3) After the free T3 is separated by using ultrafiltration and equilibrium dialysis, the free T3 is detected by the following high-performance liquid chromatography tandem mass spectrometry parameters:
(§4) chromatographic column: Acquity UPLC BEH C18 (2.1×50 mm, 1.7 μm); column oven temperature: 30° C.; mobile phases: 0.1% formic acid aqueous solution (A)˜0.1% formic acid methanol (B); and gradient elution: […]
(§5) ion source: electrospray ion source in positive ion mode; spray voltage: 5500 V; ion source temperature: 550° C.; GS1: 50 psi; GS2: 50 psi; curtain gas: 30 psi; and multiple reaction monitoring: […]

[2] = FT3 in serum by equilibrium dialysis (ED), LC-MS/MS; settings: for Concentration ED, Average: average of 10 samples; for Concentration ED: serum, individual samples No. 1-10
Protocol: as §1
(§6) Equilibrium dialysis: 200 μL 4-hydroxyethyl piperazine ethanesulfonic acid solution is placed on the buffer side of the equilibrium plate, 200 μL serum is placed on the sample side. Subsequently, the equilibrium dialysis plate is dialyzed at 20° C., 25° C., 30° C., and 37° C. for 22 h, respectively.
Internal standard precipitation: 100 μL internal standard solution is added to 100 μL dialysate and vortexed well for 3 min. Then, centrifugation is performed at 4° C. and 12000 rpm for 10 min.
as §3, §4, §5

[3] = FT4 in serum by ultrafiltration (UF), LC-MS/MS; assay type: in vitro ADME, human; settings: for Concentration UF, Average: average of 10 samples; for Concentration UF: serum, individual samples No. 1-10
From the text: (§7) In practice, other temperatures can also be used. […] Where

[4] = FT4 in serum by equilibrium dialysis (ED), LC-MS/MS; assay type: in vitro ADME, human; settings: for Concentration ED, Average: average of 10 samples; for Concentration ED: serum, individual samples No. 1-10
From the text: as §7

[5] = free testosterone in serum by ultrafiltration (UF), LC-MS/MS; settings: for Concentration UF, Average: average of 10 samples; for Concentration UF: serum, individual samples No. 1-10
Protocol: (§8) In practice, other temperatures can also be used. Subsequently, high-performance liquid chromatography tandem mass spectrometry is used for detection, and results are shown in Table 1. Where
as §2, with “900” for “100”, “300” for “a 100”
Solid-phase extraction: 20 μL internal standard solution is added to 600 μL ultrafiltrate, and vortexed well. The obtained mixture is added to an activated HLB solid-phase extraction: conditioning is performed twice by 300 μL 10% methanol aqueous solution, elution is performed twice by 300 μL 90% methanol aqueous solution, eluent is merged and blown to dry by nitrogen, and finally, the obtained product is redissolved by 100 μL 50% methanol aqueous solution.
(§9) Chromatographic column: Acquity UPLC BEH C18 (2.1×50 mm, 1.7 μm); column oven temperature: 40° C.; mobile phases: 0.1% formic acid 2 mM ammonium acetate aqueous solution (A)˜methanol (B); and gradient elution: […]
as §5

[6] = free testosterone in serum by equilibrium dialysis (ED), LC-MS/MS; settings: for Concentration ED, Average: average of 10 samples; for Concentration ED: serum, individual samples No. 1-10
Protocol: as §8
as §6, with “the equilibrium dialysis plate, 200” for “the equilibrium plate, 200”
Solid-phase extraction: 20 μL internal standard solution is added to 200 μL dialysate, and vortexed well. The obtained mixture is added to an activated HLB solid-phase extraction: conditioning is performed twice by 300 μL 10% methanol aqueous solution, elution is performed twice by using 300 μL 90% methanol aqueous solution, eluent is merged and blown to dry by nitrogen, and finally, the obtained product is redissolved by 100 μL 50% methanol aqueous solution.
as §9, §5

N[C@@H](Cc1cc(I)c(Oc2ccc(O)c(I)c2)c(I)c1)C(=O)O [FT3, triiodothyronine]
Concentration UF, Average ([1]; 20° C.): 2.34 pg/mL | Concentration UF ([1]; 20° C.): 2.54 pg/mL and 2.25 pg/mL and 2.36 pg/mL (2×) and 2.41 pg/mL and 2.32 pg/mL and 2.28 pg/mL and 2.17 pg/mL and 2.52 pg/mL and 2.23 pg/mL | Concentration UF, Average ([1]; 25° C.): 2.58 pg/mL | Concentration UF ([1]; 25° C.): 2.52 pg/mL and 2.62 pg/mL and 2.45 pg/mL and 2.68 pg/mL and 2.58 pg/mL and 2.46 pg/mL and 2.57 pg/mL and 2.65 pg/mL and 2.71 pg/mL and 2.53 pg/mL | Concentration UF, Average ([1]; 30° C.): 2.73 pg/mL | Concentration UF ([1]; 30° C.): 2.68 pg/mL and 2.75 pg/mL (2×) and 2.82 pg/mL and 2.66 pg/mL and 2.78 pg/mL and 2.58 pg/mL and 2.84 pg/mL and 2.72 pg/mL and 2.67 pg/mL | Concentration UF, Average ([1]; 37° C.): 3.19 pg/mL | Concentration UF ([1]; 37° C.): 3.05 pg/mL (2×) and 3.24 pg/mL and 3.13 pg/mL and 3.48 pg/mL and 3.20 pg/mL and 3.18 pg/mL and 3.27 pg/mL and 3.08 pg/mL and 3.17 pg/mL | Concentration ED, Average ([2]; 20° C.): 2.40 pg/mL | Concentration ED ([2]; 20° C.): 2.45 pg/mL and 2.62 pg/mL and 2.25 pg/mL and 2.35 pg/mL and 2.48 pg/mL and 2.36 pg/mL and 2.27 pg/mL and 2.46 pg/mL and 2.42 pg/mL and 2.31 pg/mL | Concentration ED, Average ([2]; 25° C.): 2.61 pg/mL | Concentration ED ([2]; 25° C.): 2.65 pg/mL and 2.75 pg/mL and 2.52 pg/mL and 2.61 pg/mL and 2.48 pg/mL and 2.54 pg/mL and 2.68 pg/mL and 2.70 pg/mL and 2.63 pg/mL and 2.57 pg/mL | Concentration ED, Average ([2]; 30° C.): 2.77 pg/mL | Concentration ED ([2]; 30° C.): 2.72 pg/mL and 2.65 pg/mL and 2.85 pg/mL (2×) and 2.88 pg/mL and 2.68 pg/mL and 2.76 pg/mL and 2.78 pg/mL (2×) and 2.71 pg/mL | 2nd conc. (ED) ([2]; 37° C. equilibrium dialysis 22 h, 60 different serum specimens): 3.05 and 3.18 and 3.17 and 3.22 and 3.04 and 3.24 and 3.19 and 3.48 | Concentration ED, Average ([2]; 37° C.): 3.22 pg/mL | Concentration ED ([2]; 37° C.): 3.13 pg/mL and 3.22 pg/mL and 3.04 pg/mL and 3.32 pg/mL and 3.15 pg/mL and 3.31 pg/mL (2×) and 3.34 pg/mL and 3.28 pg/mL and 3.12 pg/mL

N[C@@H](Cc1cc(I)c(Oc2cc(I)c(O)c(I)c2)c(I)c1)C(=O)O [FT4, thyroxine]
Concentration UF, Average ([3]; 20° C.): 6.85 pg/mL | Concentration UF ([3]; 20° C.): 7.21 pg/mL and 6.77 pg/mL and 6.78 pg/mL (2×) and 6.40 pg/mL and 6.94 pg/mL and 6.85 pg/mL and 7.01 pg/mL and 6.90 pg/mL and 6.81 pg/mL | Concentration UF, Average ([3]; 25° C.): 8.51 pg/mL | Concentration UF ([3]; 25° C.): 7.92 pg/mL and 8.97 pg/mL and 8.74 pg/mL and 8.58 pg/mL and 8.14 pg/mL and 8.06 pg/mL and 8.57 pg/mL and 8.72 pg/mL and 8.63 pg/mL and 8.76 pg/mL | Concentration UF, Average ([3]; 30° C.): 10.58 pg/mL | Concentration UF ([3]; 30° C.): 10.73 pg/mL and 9.82 pg/mL and 10.55 pg/mL and 10.61 pg/mL and 10.97 pg/mL and 10.75 pg/mL and 10.82 pg/mL and 10.57 pg/mL and 10.33 pg/mL and 10.63 pg/mL | Concentration UF, Average ([3]; 37° C.): 14.00 pg/mL | Concentration UF ([3]; 37° C.): 13.45 pg/mL and 13.82 pg/mL and 14.14 pg/mL and 13.57 pg/mL and 14.22 pg/mL and 14.58 pg/mL and 13.74 pg/mL and 14.05 pg/mL and 14.26 pg/mL and 14.16 pg/mL | Concentration ED, Average ([4]; 20° C.): 6.83 pg/mL | Concentration ED ([4]; 20° C.): 7.05 pg/mL (2×) and 6.91 pg/mL and 6.85 pg/mL and 6.76 pg/mL and 6.71 pg/mL and 6.42 pg/mL and 6.83 pg/mL and 6.84 pg/mL and 6.90 pg/mL | Concentration ED, Average ([4]; 25° C.): 8.53 pg/mL | Concentration ED ([4]; 25° C.): 8.37 pg/mL and 8.33 pg/mL and 8.83 pg/mL and 8.05 pg/mL and 8.24 pg/mL and 8.94 pg/mL and 8.47 pg/mL and 8.69 pg/mL and 8.73 pg/mL and 8.65 pg/mL | Concentration ED, Average ([4]; 30° C.): 10.80 pg/mL | Concentration ED ([4]; 30° C.): 10.91 pg/mL and 11.07 pg/mL and 11.18 pg/mL and 10.63 pg/mL (2×) and 10.46 pg/mL and 10.98 pg/mL and 10.74 pg/mL and 10.67 pg/mL and 10.75 pg/mL | Concentration ED, Average ([4]; 37° C.): 14.22 pg/mL | Concentration ED ([4]; 37° C.): 14.17 pg/mL and 14.64 pg/mL and 13.61 pg/mL and 14.22 pg/mL and 14.67 pg/mL and 14.63 pg/mL and 13.94 pg/mL and 14.15 pg/mL and 14.11 pg/mL and 14.06 pg/mL

C[C@]12CC[C@H]3[C@@H](CCC4=CC(=O)CC[C@@]43C)[C@@H]1CC[C@@H]2O [free testosterone, testosterone]
Concentration UF, Average ([5]; 20° C.): 4.12 pg/mL | Concentration UF ([5]; 20° C.): 4.26 pg/mL and 4.29 pg/mL and 4.01 pg/mL and 4.38 pg/mL and 3.98 pg/mL and 3.92 pg/mL and 4.15 pg/mL and 4.12 pg/mL and 3.97 pg/mL and 4.07 pg/mL | Concentration UF, Average ([5]; 25° C.): 4.50 pg/mL | Concentration UF ([5]; 25° C.): 4.37 pg/mL and 4.64 pg/mL (2×) and 4.51 pg/mL (2×) and 4.45 pg/mL and 4.39 pg/mL and 4.48 pg/mL and 4.43 pg/mL and 4.61 pg/mL | Concentration UF, Average ([5]; 30° C.): 4.81 pg/mL | Concentration UF ([5]; 30° C.): 4.69 pg/mL and 4.96 pg/mL (2×) and 4.83 pg/mL and 4.79 pg/mL and 4.58 pg/mL and 4.85 pg/mL and 4.91 pg/mL and 4.74 pg/mL and 4.77 pg/mL | Concentration UF, Average ([5]; 37° C.): 5.16 pg/mL | Concentration UF ([5]; 37° C.): 5.12 pg/mL and 5.28 pg/mL and 5.30 pg/mL and 5.04 pg/mL and 5.16 pg/mL (2×) and 5.18 pg/mL and 5.24 pg/mL and 5.03 pg/mL and 5.07 pg/mL | Concentration ED, Average ([6]; 20° C.): 4.08 pg/mL | Concentration ED ([6]; 20° C.): 4.05 pg/mL (2×) and 4.17 pg/mL and 3.94 pg/mL and 4.21 pg/mL and 3.85 pg/mL and 4.18 pg/mL and 4.01 pg/mL and 4.16 pg/mL and 4.22 pg/mL | Concentration ED, Average ([6]; 25° C.): 4.55 pg/mL | Concentration ED ([6]; 25° C.): 4.75 pg/mL and 4.61 pg/mL and 4.48 pg/mL and 4.56 pg/mL and 4.41 pg/mL and 4.62 pg/mL and 4.57 pg/mL and 4.42 pg/mL and 4.50 pg/mL and 4.54 pg/mL | Concentration ED, Average ([6]; 30° C.): 4.93 pg/mL | Concentration ED ([6]; 30° C.): 5.04 pg/mL and 5.01 pg/mL and 4.95 pg/mL and 5.02 pg/mL and 4.85 pg/mL and 4.87 pg/mL and 4.91 pg/mL and 4.98 pg/mL and 4.84 pg/mL and 4.82 pg/mL | Concentration ED, Average ([6]; 37° C.): 5.21 pg/mL | Concentration ED ([6]; 37° C.): 5.40 pg/mL and 4.95 pg/mL and 5.23 pg/mL and 5.42 pg/mL and 5.12 pg/mL and 5.32 pg/mL and 5.22 pg/mL and 5.27 pg/mL and 5.13 pg/mL and 5.07 pg/mL
